Reference: publication PMC6757289, “Design and Characterization of SGK3-PROTAC1, an Isoform Specific SGK3 Kinase PROTAC Degrader” (ACS Chemical Biology, 2019)

Legend:
CAMA-1 cells = assay: Cell growth (confluency, Incucyte S3); format: cell-based; conditions: CAMA-1; 1 μM GDC0941 or AZD5363; SGK3-PROTAC1/cisSGK3-PROTAC1 0.3 μM, 14H 3 μM
Procedure: (§1) Figure 6 SGK3-PROTAC1-mediated degradation of SGK3 further inhibiting the growth of cancer cell lines treated with PI3K-Akt pathway inhibitors. CAMA-1 (A, C) and ZR-75-1 (B, D) were treated with compounds as indicated either as monotherapy or in combination, and confluency was measured on the Incucyte S3 every 4 h for up to 4 weeks.
(§2) For growth assays, ZR-75-1 cells were seeded in 96-well plates at a density of 6000 cells/well and left to adhere overnight. Cells were then treated with compounds as described in the figure legends and imaged every 4 h on the Incucyte S3 (Essen Bioscience) for up to 4 weeks to give a measure of cell confluency. Media were refreshed every 4–5 days.
(§3) Supplementary Figure S3. SGK3-PROTAC compounds have no effect on cell growth. CAMA-1 and ZR-75-1
(§4) confluency was m easured every 4 h on Incucyte S3.
(§5) (1 picture or pasted object on this page, not shown here)

ZR-75-1 cells = assay: Cell growth (confluency, Incucyte S3); format: cell-based; conditions: ZR-75-1; 1 μM GDC0941 or AZD5363; SGK3-PROTAC1/cisSGK3-PROTAC1 0.3 μM, 14H 3 μM
Procedure: as §1, §2, §3, §4, §5

SGK3 = molecular target: T1, SGK3 (Homo sapiens, UniProt Q96BR1); parameters: method as in PMID 27481935; conditions: cited from earlier work
T1 sequence (Q96BR1 1-496): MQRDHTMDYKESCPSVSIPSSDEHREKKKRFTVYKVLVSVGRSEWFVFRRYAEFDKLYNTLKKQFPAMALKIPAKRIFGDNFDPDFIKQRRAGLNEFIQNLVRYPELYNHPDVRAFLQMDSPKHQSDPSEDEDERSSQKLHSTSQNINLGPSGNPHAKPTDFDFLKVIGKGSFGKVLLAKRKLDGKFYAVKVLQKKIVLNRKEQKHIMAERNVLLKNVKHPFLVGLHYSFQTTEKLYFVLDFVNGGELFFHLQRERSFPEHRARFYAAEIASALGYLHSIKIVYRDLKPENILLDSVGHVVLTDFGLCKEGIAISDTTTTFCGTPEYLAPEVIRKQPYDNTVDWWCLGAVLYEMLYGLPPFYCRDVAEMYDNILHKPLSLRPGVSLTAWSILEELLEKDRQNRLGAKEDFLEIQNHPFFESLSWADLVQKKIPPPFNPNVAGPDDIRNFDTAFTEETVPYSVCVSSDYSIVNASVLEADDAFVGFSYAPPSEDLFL

S6K1 = S6K1 (Homo sapiens, UniProt P23443, T412E); parameters: method as in PMID 27481935; conditions: cited from earlier work
[1] = test system: phosphorylation of NDRG1 at Thr346; assay: NDRG1 phosphorylation in HEK293 cells, immunoblot; format: cell-based; conditions: HEK293, 8 h, 0.3 μM SGK3-PROTAC1, 1 μM 14H, 1 μM 308-R
Procedure: Figure 3 Characterization of cellular activities of SGK3-PROTAC1 and cisSGK3-PROTAC1. (A) HEK293 cells were first treated for 8 h with 0.03–3 μM SGK3-PROTAC1 and cisSGK3-PROTAC1. One hour before lysis, cells were treated with 3 μM AZD5363. Lysates were subjected to immunoblot analysis with the indicated antibodies. […] Lysates were subjected to immunoblot analysis with the indicated antibodies. (C) HEK293 cells were treated for up to 48 h with SGK3-PROTAC1 (0.3 μM), and lysates were analyzed by immunoblot analysis using the indicated antibodies. (D) HEK293 cells were treated for 24 h with SGK3-PROTAC1. Cells were washed three times with DMEM to wash out the compound, and recovery of SGK3 expression protein was analyzed by immunoblot analysis. (E–G) As in A except that CAMA-1 (E), ZR-75-1 (F), and JIMT-1 (G) cells were employed rather than HEK293 cells.
To study the impact of SGK3-PROTAC1 on phosphorylation of a physiological substrate, we monitored phosphorylation of NDRG1 at Thr346.[37] This site is also phosphorylated by Akt; therefore we treated cells with increasing doses of SGK3-PROTAC1 and cisSGK3-PROTAC1 for 8 h, with the addition of an Akt inhibitor (3 μM AZD5363) 1 h before lysis, to remove the impact of Akt phosphorylation of NDRG1. […] Concentrations of cisSGK3-PROTAC1 of above 1 μM were required to lower NDRG1 phosphorylation. […] This is consistent with previous work in HEK293 cells showing that inhibition of both Akt and SGK3 is required to block NDRG1 phosphorylation.[8],[37]
All cell treatments were carried out as described in figure legends, to a final DMSO concentration of 0.1% (v/v). Lysates were quantified. Immunoblotting was performed using standard procedures, described in brief below. Lysate concentration was quantified by Bradford Assay, and 10 μg of lysate was loaded in the LDS sample buffer for SDS-PAGE electrophoresis on Novex 4–12% Bis–Tris gels. Proteins were electrophoretically transferred onto nitrocellulose membranes (Amersham Protran 0.45 μm NC; GE Healthcare) at 80 V for 80 min on ice in transfer buffer. Transferred membranes were blocked with 5% (w/v) nonfat dry milk dissolved in TBS-T [20 mM Tris/HCl, pH 7.5, 150 mM NaCl, and 0.1% (v/v) Tween 20] at RT for 30 min, before incubation with the primary antibody overnight at 4 °C. The signal was produced with near-infrared secondary antibodies and detected using a Licor Biosciences Odyssey System, and the signal was quantified in Image Studio Lite.

SGK1 = molecular target: T2, SGK1 (Homo sapiens, UniProt O00141, S422D); parameters: method as in PMID 27481935; conditions: cited from earlier work
T2 sequence (O00141 60-431 S422D limits assumed): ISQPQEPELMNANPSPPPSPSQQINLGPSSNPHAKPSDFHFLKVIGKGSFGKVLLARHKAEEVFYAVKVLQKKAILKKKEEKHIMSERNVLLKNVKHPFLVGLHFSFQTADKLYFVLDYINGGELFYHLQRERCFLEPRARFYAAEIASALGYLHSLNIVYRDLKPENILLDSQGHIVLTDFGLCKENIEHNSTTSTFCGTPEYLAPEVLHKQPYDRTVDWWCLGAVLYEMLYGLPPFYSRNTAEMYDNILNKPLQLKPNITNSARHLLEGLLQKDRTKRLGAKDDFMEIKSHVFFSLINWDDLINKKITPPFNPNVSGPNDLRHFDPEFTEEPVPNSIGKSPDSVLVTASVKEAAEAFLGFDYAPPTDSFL

Chain of S6K1 (P23443 1-421 T412E limits assumed): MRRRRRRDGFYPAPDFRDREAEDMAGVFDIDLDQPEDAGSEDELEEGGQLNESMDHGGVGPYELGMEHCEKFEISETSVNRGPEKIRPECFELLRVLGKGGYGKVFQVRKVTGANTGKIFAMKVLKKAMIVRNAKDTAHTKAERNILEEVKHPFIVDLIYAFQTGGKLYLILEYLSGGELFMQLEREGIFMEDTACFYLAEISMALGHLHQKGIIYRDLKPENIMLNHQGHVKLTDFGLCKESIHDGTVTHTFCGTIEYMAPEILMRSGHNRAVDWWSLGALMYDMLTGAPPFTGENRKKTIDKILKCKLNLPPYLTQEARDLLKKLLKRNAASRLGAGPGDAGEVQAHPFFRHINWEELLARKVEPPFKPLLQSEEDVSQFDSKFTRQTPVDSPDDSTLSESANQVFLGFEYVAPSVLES

Nc1n[nH]c2nc(-c3ccc(NS(=O)(=O)c4cc(Cl)ccc4Cl)cc3)ncc12 [14H, reference compound]
growth in combination with GDC0941 or AZD5363 (CAMA-1 cells): further suppressed cell growth
growth in combination with GDC0941 or AZD5363 (ZR-75-1 cells): further suppressed cell growth
IC50 (SGK3): 4 nM
IC50 (S6K1): 76 nM
pNDRG1 phosphorylation ([1]; basal, no inhibition of Akt): minimal effect
NDRG1 phosphorylation ([1]; in the presence of 3 μM AZD5363): markedly suppressed
IC50 (SGK1): 10 nM
